Measurements taken from EP3248604A1, “AGENTS FOR MODULATION OF WNT-TCF SIGNALLING AND USES THEREOF” (UNIVERSITE DE GENEVE, priority 2016, dated 2017).
Like-named read-outs stand apart in the source and are kept apart here.

Tests used:
WNT-TCF targets [1] = experiment: RT-qPCR gene expression in Ls174T cells; assay type: cell-based, human; settings: for fold induction at 0.5 µM / fold induction at 5 µM: Homo sapiens
Protocol: (§1) RT-qPCR was performed as in Melotti et al. (2014, supra) using BioRad equipment and reagents. Cells cultured in nitro were treated with the desired concentration of drug in DMEM-F12 and reduced serum (2.5% FBS) for 16h, unless otherwise noted, and collected in Trizol (Sigma) before total RNA extraction and cDNA synthesis. Primers were as in Table 1. HPRT (gene encoding Hypoxanthine phosphoribosyltransferase 1) and βACTIN were used as housekeeping controls for normalization.
Compounds have been tested for the transcriptional modulation of a restricted TCF signature in human colon cancer Ls174T cells. These included the direct targets AXIN2 (gene encoding a protein axis inhibition protein 2), LGR5 (gene encoding encodes leucine-rich repeat-containing G-protein coupled receptor 5) and cMYC (a regulator gene encoding a transcription factor), which should be repressed by WNT-TCF response antagonists and p21 (or CDKN1A, gene encoding a cyclin-dependent kinase inhibitor that inhibits the complexes of CDK2 and CDK1), which should be induced.

CC14 cells = experiment: Epithelial island morphology of CC14 cells; assay type: cell-based, human; settings: 24h; for epithelial island morphology: 1 µM
Protocol: Similar phenotypes were only observed at 10 µM of CAP1 or 5 µM of CAP3. CAP2 was thus chosen for further detailed analyses.

WNT-TCF targets [2] = experiment: RT-qPCR gene expression in CC14 primary colon cancer cells; assay type: cell-based, human; design: cMYC expression: scale not given here; settings: 100 nM; Example 2 cells (CC14)
Protocol: as §1
Primary colon cells CC14 were cultured in DMEM-F12 with 10% FBS under standard in vitro conditions.
Primary colon cells CC14, CC36 and mCC11, colon cancer cell lines DLD1, HT29, Ls174T, melanoma cell line MeWo, glioblastoma cell lines U87 and U251, and the lung cancer cell line H358 were cultured in DMEM-F12 with 10% FBS under standard in nitro conditions.

cell proliferation = experiment: BrdU incorporation assay; assay type: cell-based; settings: 10 µM; 16h
Protocol: Cells incubated in vitro with different compounds were treated in DMEM-F12 with reduced serum (2.5% FBS) for 20 min with BrdU (5-bromo-2'-deoxyuridine; 10mg/ml, Sigma), washed and fixed with fresh paraformaldehyde (PFA; 4%, pH 8) followed by acid treatment and neutralization (Melotti et al., 2014, supra). Antibody analyses used anti-BrdU antibodies (supplied by University of Iowa Hybridoma Bank) and rhodamine-coupled anti-mouse secondary antibodies (Invitrogen Molecular Probes). Nuclei were counterstained with DAPI (4',6-diamidino-2-phenylindole; Sigma).

[3] = Ls174T, 0.5µM, 16h, over DMSO-treated controls, read-out: AXIN2 expression
[4] = Ls174T, 0.5µM, 16h, over DMSO-treated controls, read-out: CDKN1A expression
[5] = Ls174T, 0.5µM, 16h, over DMSO-treated controls, read-out: LGR5 expression
[6] = Ls174T, 0.5µM, 16h, over DMSO-treated controls, read-out: cMYC expression
[7] = LS174T, 16 h, read-out: AXIN2 expression
[8] = LS174T, 16 h, read-out: CDKN1A expression
[9] = LS174T, 16 h, read-out: cMYC expression
[10] = Ls174T, 0.5µM, 16h, over DMSO-treated controls
[11] = Ls174T, 5µM, 16h, over DMSO-treated controls

Compound: C[C@H]1O[C@@H](O[C@H]2[C@@H](O)C[C@H](O[C@H]3[C@@H](O)C[C@H](O[C@H]4CC[C@@]5(C)[C@H](CC[C@@H]6[C@@H]5C[C@@H](O)[C@]5(C)[C@@H](C7=CC(=O)OC7)CC[C@]65O)C4)O[C@@H]3C)O[C@@H]2C)C[C@H](O)[C@@H]1O [Digoxin, digoxin, reference compound]
- fold induction at 0.5 µM (WNT-TCF targets [1]; [3]): 0.5
- fold induction at 0.5 µM (WNT-TCF targets [1]; [4]): 3
- fold induction at 0.5 µM (WNT-TCF targets [1]; [5]): 6.6
- fold induction at 0.5 µM (WNT-TCF targets [1]; [6]): 1.1

Compound: C[C@]12CC[C@H](O)C[C@H]1CC[C@@H]1[C@@H]2CC[C@]2(C)[C@@H](C3=CC(=O)OC3)[C@@H](O)C[C@]12O [Gitoxigenin, gitoxigenin, reference compound]
- fold induction at 0.5 µM (WNT-TCF targets [1]; [3]): 1
- fold induction at 0.5 µM (WNT-TCF targets [1]; [4]): 0.3
- fold induction at 0.5 µM (WNT-TCF targets [1]; [5]): 0.6
- fold induction at 0.5 µM (WNT-TCF targets [1]; [6]): 0.4

Compound: 2,6-dimethyltetrahydropyran-3,4,5-triol; ethane; 3-(3,14,16-trihydroxy-10,13-dimethyl-1,2,3,4,5,6,7,8,9,11,12,15,16,17-tetradecahydro cyclopenta[a]phenanthren-17-yl)-2H-furan-5-one [CAP3]
- AXIN2 expression (WNT-TCF targets [1]; Ls174T, 10 µM, 16h): 0.7
- CDKN1A expression (WNT-TCF targets [1]; Ls174T, 10 µM, 16h): 6.3
- LGR5 expression (WNT-TCF targets [1]; Ls174T, 10 µM, 16h): 0.2
- cMYC expression (WNT-TCF targets [1]; Ls174T, 10 µM, 16h): 0.2
- epithelial island morphology (CC14 cells): maintained
- concentration at which disrupted morphology phenotype was observed (CC14 cells): 5 µM

Compound: C[C@H]1O[C@@H](O[C@H]2[C@@H](O)C[C@H](O[C@H]3[C@@H](O)C[C@H](O[C@H]4CC[C@@]5(C)[C@H](CC[C@@H]6[C@@H]5CC[C@]5(C)[C@@H](C7=CC(=O)OC7)[C@@H](O)C[C@]65O)C4)O[C@@H]3C)O[C@@H]2C)C[C@H](O)[C@@H]1O [Gitoxin, gitoxin, reference compound]
- fold induction at 0.5 µM (WNT-TCF targets [1]; [7]): 0.4
- fold induction at 0.5 µM (WNT-TCF targets [1]; [8]): 1.3
- fold induction at 0.5 µM (WNT-TCF targets [1]; [9]): 0.8

Compound: C[C@H]1O[C@@H](O[C@H]2[C@@H](O)C[C@H](O[C@H]3[C@@H](O)C[C@H](O[C@H]4CC[C@@]5(C)[C@H](CC[C@@H]6[C@@H]5CC[C@]5(C)[C@@H](C7=CC(=O)OC7)CC[C@]65O)C4)O[C@@H]3C)O[C@@H]2C)C[C@H](O)[C@@H]1O [Digitoxin, digitoxin, reference compound]
- fold induction at 0.5 µM (WNT-TCF targets [1]; [3]): 0.6
- fold induction at 0.5 µM (WNT-TCF targets [1]; [4]): 1.7
- fold induction at 0.5 µM (WNT-TCF targets [1]; [5]): 2.1
- fold induction at 0.5 µM (WNT-TCF targets [1]; [6]): 0.2
- LGR5 repression (WNT-TCF targets [1]; Ls174T, lower doses 100 and 10 nM): lack of repressing on LGR5

Compound: C[C@@H]1O[C@@H](O[C@H]2CC[C@]3(C=O)[C@H]4CC[C@]5(C)[C@@H](C6=CC(=O)OC6)CC[C@]5(O)[C@@H]4CC[C@]3(O)C2)[C@H](O)[C@H](O)[C@H]1O [Convallatoxin, convallatoxin, reference compound]
- fold induction at 0.5 µM (WNT-TCF targets [1]; [7]): 1.7
- fold induction at 0.5 µM (WNT-TCF targets [1]; [8]): 0.3
- fold induction at 0.5 µM (WNT-TCF targets [1]; LS174T, 16 h, read-out: LGR5 expression): 1.6
- fold induction at 0.5 µM (WNT-TCF targets [1]; [9]): 0.2

Compound: CO[C@H]1C[C@H](O[C@H]2CC[C@@]3(C)[C@H](CC[C@@H]4[C@@H]3CC[C@]3(C)[C@@H](C5=CC(=O)OC5)[C@@H](OC(C)=O)C[C@]43O)C2)O[C@@H](C)[C@@H]1O [Oleandrin, oleandrin, reference compound]
- fold induction at 0.5 µM (WNT-TCF targets [1]; [3]): 1.6
- fold induction at 0.5 µM (WNT-TCF targets [1]; [4]): 1.1
- fold induction at 0.5 µM (WNT-TCF targets [1]; [5]): 0.5
- fold induction at 0.5 µM (WNT-TCF targets [1]; [6]): 0.1

Compound: CO[C@H]1[C@H](O)[C@H](O[C@H]2CC[C@@]3(C)[C@H](CC[C@@H]4[C@@H]3CC[C@]3(C)[C@@H](C5=CC(=O)OC5)CC[C@]43O)C2)O[C@@H](C)[C@@H]1O [Neriifolin, neriifolin, reference compound]
- fold induction at 0.5 µM (WNT-TCF targets [1]; [3]): 1.2
- fold induction at 0.5 µM (WNT-TCF targets [1]; [5]): 1.8

Compound: CO[C@H]1C[C@H](O[C@H]2CC[C@]3(C=O)[C@H]4CC[C@]5(C)[C@@H](C6=CC(=O)OC6)CC[C@]5(O)[C@@H]4CC[C@]3(O)C2)O[C@H](C)[C@H]1O [Cymarin, cymarin, reference compound]
- fold induction at 0.5 µM (WNT-TCF targets [1]; [3]): 1
- fold induction at 0.5 µM (WNT-TCF targets [1]; [4]): 0.9
- fold induction at 0.5 µM (WNT-TCF targets [1]; [5]): 0.9
- fold induction at 0.5 µM (WNT-TCF targets [1]; [6]): 1

Compound: C[C@@H]1O[C@@H](O[C@H]2C[C@@H](O)[C@]3(CO)[C@H]4[C@H](O)C[C@]5(C)[C@@H](C6=CC(=O)OC6)CC[C@]5(O)[C@@H]4CC[C@]3(O)C2)[C@H](O)[C@H](O)[C@H]1O [Ouabain, ouabain, reference compound]
- fold induction at 0.5 µM (WNT-TCF targets [1]; [3]): 0.8
- fold induction at 0.5 µM (WNT-TCF targets [1]; [4]): 10
- fold induction at 0.5 µM (WNT-TCF targets [1]; [5]): 3.3
- fold induction at 0.5 µM (WNT-TCF targets [1]; [6]): 0.5
- fold induction at 5 µM (WNT-TCF targets [1]; Ls174T, 5µM, 16h, over DMSO-treated controls, read-out: AXIN2 expression): 1
- fold induction at 5 µM (WNT-TCF targets [1]; Ls174T, 5µM, 16h, over DMSO-treated controls, read-out: LGR5 expression): 1.4

Compound: CC1=C(C)C(=O)O[C@@H]([C@@H](C)[C@H]2CC[C@H]3[C@@H]4[C@@H]5O[C@@H]5[C@@]5(O)CC=CC(=O)[C@]5(C)[C@H]4CC[C@]23C)C1 [Withanolide B, withanolide B, reference compound]
- AXIN2 expression (WNT-TCF targets [1]; [10]): 1.1
- CDKN1A expression (WNT-TCF targets [1]; [10]): 1.9
- LGR5 expression (WNT-TCF targets [1]; [10]): 1.3
- cMYC expression (WNT-TCF targets [1]; [10]): 1.3
- AXIN2 expression (WNT-TCF targets [1]; [11]): 1.3
- LGR5 expression (WNT-TCF targets [1]; [11]): 1.4

Compound: CC1=C(C)C(=O)O[C@@H]([C@@](C)(O)[C@]2(O)CC[C@@]3(O)[C@@H]4CC=C5C[C@@H](O[C@@H]6O[C@H](CO)[C@@H](O)[C@H](O)[C@H]6O)CC(=O)[C@]5(C)[C@H]4CC[C@]23C)C1 [CAP1, (14R,17S,20R,22R)-3β,14,17,20-Tetrahydroxy-1-oxo-witha-5,24-dienolide 3-O-β-D-glucopyranoside]
- AXIN2 expression (WNT-TCF targets [1]; Ls174T, 10 µM, 16h): 0.7
- CDKN1A expression (WNT-TCF targets [1]; Ls174T, 10 µM, 16h): 2.5
- LGR5 expression (WNT-TCF targets [1]; Ls174T, 10 µM, 16h): 0.2
- cMYC expression (WNT-TCF targets [1]; Ls174T, 10 µM, 16h): 0.1
- epithelial island morphology (CC14 cells): maintained
- concentration at which disrupted morphology phenotype was observed (CC14 cells): 10 µM
- AXIN2 expression (WNT-TCF targets [2]): 1.1
- LGR5 expression (WNT-TCF targets [2]): 0.8
- cMYC expression (WNT-TCF targets [2]): 1.2
- reduction of BrdU incorporation (cell proliferation): > 50%

Compound: CC1=C(C)C(=O)O[C@@H]([C@](C)(O)[C@H]2CC[C@H]3[C@@H]4[C@@H]5O[C@@H]5[C@@]5(O)CC=CC(=O)[C@]5(C)[C@H]4CC[C@]23C)C1 [Withanolide A, withanolide A, reference compound]
- AXIN2 expression (WNT-TCF targets [1]; [10]): 0.8
- CDKN1A expression (WNT-TCF targets [1]; [10]): 0.7
- LGR5 expression (WNT-TCF targets [1]; [10]): 0.8
- cMYC expression (WNT-TCF targets [1]; [10]): 0.4
- AXIN2 expression (WNT-TCF targets [1]; [11]): 1.8
- LGR5 expression (WNT-TCF targets [1]; [11]): 1.3
